Data on 11 compounds can be found in ChEMBL document CHEMBL5465560, “Selectivity Literature for EUbOPEN Chemogenomic Library” (2024).

A value given as a limit tells only on which side of the number the result lay.

Test [1] concerns the target T1, Serine/threonine-protein kinase TBK1 (Homo sapiens) (UniProt Q9UHD2).
T1 sequence (whole entry): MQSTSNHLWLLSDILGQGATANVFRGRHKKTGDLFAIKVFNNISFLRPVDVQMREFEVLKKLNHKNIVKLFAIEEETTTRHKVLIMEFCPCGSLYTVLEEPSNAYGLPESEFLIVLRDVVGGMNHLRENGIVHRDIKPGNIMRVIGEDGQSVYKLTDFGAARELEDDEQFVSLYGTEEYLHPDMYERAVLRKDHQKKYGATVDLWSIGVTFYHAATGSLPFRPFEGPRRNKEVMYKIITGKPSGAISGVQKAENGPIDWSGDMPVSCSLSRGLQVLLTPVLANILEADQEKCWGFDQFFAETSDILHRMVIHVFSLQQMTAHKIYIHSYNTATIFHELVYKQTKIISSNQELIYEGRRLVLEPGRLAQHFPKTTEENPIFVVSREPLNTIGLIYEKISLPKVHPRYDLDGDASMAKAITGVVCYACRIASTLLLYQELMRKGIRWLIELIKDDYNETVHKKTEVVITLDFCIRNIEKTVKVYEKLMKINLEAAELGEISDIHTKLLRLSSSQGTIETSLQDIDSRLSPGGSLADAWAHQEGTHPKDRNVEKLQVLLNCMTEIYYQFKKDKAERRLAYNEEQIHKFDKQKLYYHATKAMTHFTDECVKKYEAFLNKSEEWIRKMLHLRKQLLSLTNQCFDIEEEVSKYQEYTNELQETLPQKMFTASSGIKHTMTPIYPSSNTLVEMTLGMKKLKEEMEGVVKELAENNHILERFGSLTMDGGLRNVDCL
The test is described as follows: Selectivity interaction (Kinase panel (KiNativ target engagement assay in Jurkat cells)) EUB0001635a TBK1. To be noted: Selectivity number of off-targets 0.0, Selectivity number of targets 233.0, Source Knowledge https://www.sciencedirect.com/science/article/pii/S2451945619300674?via%3Dihub, at 1 µM. The format is cell-based.

In test [2] the target is Calcium/calmodulin-dependent protein kinase type 1D (Homo sapiens) (UniProt Q8IU85). The test is described as follows: Selectivity interaction (KinomeScan (DiscoverX)) EUB0000607a CAMK1D. To be noted: at 10 µM.
The target of test [3] is Homeodomain-interacting protein kinase 2 (Homo sapiens, UniProt Q9H2X6). The conditions noted are these: at 10 µM.
In test [4] the target is T2, Tyrosine-protein kinase ITK/TSK (Homo sapiens) (UniProt Q08881).
T2 sequence (whole entry): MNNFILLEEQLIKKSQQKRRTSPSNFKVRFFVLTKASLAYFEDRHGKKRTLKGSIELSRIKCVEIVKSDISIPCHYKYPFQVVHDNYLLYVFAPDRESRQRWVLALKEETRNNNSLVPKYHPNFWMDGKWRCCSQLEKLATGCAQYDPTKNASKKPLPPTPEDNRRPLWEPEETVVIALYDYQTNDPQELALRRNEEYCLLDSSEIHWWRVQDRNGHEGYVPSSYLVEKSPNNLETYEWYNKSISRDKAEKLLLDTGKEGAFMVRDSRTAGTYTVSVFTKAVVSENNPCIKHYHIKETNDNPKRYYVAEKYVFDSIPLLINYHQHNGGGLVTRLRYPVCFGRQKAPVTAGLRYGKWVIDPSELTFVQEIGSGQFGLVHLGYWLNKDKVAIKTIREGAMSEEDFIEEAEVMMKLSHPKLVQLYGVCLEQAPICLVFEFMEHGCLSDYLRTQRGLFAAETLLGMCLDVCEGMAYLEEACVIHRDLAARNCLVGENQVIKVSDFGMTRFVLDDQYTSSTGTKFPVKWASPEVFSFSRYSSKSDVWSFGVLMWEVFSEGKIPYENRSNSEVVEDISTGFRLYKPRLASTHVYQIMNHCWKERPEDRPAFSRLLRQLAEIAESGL
In words: Selectivity interaction (KinomeScan (DiscoverX)) EUB0000666a ITK. The conditions noted are these: at 10 µM.

The target in test [5] is Serine/threonine-protein kinase PAK 6 (Homo sapiens) (UniProt Q9NQU5). In words: Selectivity interaction (KinomeScan (DiscoverX)) EUB0000666a PAK6. To be noted: at 10 µM.
Test [6] has as its target MAP kinase-interacting serine/threonine-protein kinase 2 (Homo sapiens, UniProt Q9HBH9). The test is described as follows: Selectivity interaction (KinomeScan (DiscoverX)) EUB0001079a MKNK2. To be noted: at 1 µM.
In test [7] the target is Vascular endothelial growth factor receptor 2 (Homo sapiens, UniProt P35968). In words: Selectivity interaction (Kinase panel (Eurofins)) EUB0001564a KDR. To be noted: at 1 µM.
The target in test [8] is D(1A) dopamine receptor (Homo sapiens, UniProt P21728). In words: Selectivity interaction (Dopamine D1 - cAMP agonist mode ) EUB0000877a DRD1.
Test [9] has as its target Serine/threonine-protein kinase pim-1 (Homo sapiens, UniProt P11309). The test is described as follows: Selectivity interaction (KinomeScan (DiscoverX)) EUB0001049a PIM1. To be noted: at 1 µM.
In test [10] the target is RAF proto-oncogene serine/threonine-protein kinase (Homo sapiens) (UniProt P04049). In words: Selectivity interaction (KinomeScan (DiscoverX)) EUB0000695a RAF1. The conditions noted are these: at 100 nM.
The target in test [11] is T3, Serine/threonine-protein kinase DCLK3 (Homo sapiens) (UniProt Q9C098).
T3 sequence (whole entry): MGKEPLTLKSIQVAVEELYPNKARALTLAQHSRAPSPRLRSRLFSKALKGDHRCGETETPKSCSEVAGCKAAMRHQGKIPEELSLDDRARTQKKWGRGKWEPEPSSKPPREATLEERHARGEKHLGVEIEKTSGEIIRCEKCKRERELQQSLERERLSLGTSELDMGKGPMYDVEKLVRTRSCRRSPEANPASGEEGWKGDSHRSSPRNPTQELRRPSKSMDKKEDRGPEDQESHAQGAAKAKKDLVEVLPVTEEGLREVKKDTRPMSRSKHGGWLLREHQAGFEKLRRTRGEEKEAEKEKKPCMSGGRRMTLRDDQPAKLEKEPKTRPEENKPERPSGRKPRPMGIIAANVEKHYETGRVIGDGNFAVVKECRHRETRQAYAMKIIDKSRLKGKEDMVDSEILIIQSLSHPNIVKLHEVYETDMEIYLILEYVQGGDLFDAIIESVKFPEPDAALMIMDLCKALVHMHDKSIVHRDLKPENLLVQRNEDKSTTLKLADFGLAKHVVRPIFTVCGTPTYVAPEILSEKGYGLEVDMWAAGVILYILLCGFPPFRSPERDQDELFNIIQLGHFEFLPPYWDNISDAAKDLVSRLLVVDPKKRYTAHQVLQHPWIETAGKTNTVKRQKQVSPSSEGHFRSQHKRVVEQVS
The test is described as follows: Selectivity interaction (KinomeScan (DiscoverX)) EUB0000092b DCLK3. To be noted: at 10 µM.

The target in test [12] is Fibroblast growth factor receptor 1 (Homo sapiens, UniProt P11362). In words: Selectivity interaction (KinomeScan (DiscoverX)) EUB0000045b FGFR1.
Chain of Fibroblast growth factor receptor 1 (P11362 22-822 limits assumed): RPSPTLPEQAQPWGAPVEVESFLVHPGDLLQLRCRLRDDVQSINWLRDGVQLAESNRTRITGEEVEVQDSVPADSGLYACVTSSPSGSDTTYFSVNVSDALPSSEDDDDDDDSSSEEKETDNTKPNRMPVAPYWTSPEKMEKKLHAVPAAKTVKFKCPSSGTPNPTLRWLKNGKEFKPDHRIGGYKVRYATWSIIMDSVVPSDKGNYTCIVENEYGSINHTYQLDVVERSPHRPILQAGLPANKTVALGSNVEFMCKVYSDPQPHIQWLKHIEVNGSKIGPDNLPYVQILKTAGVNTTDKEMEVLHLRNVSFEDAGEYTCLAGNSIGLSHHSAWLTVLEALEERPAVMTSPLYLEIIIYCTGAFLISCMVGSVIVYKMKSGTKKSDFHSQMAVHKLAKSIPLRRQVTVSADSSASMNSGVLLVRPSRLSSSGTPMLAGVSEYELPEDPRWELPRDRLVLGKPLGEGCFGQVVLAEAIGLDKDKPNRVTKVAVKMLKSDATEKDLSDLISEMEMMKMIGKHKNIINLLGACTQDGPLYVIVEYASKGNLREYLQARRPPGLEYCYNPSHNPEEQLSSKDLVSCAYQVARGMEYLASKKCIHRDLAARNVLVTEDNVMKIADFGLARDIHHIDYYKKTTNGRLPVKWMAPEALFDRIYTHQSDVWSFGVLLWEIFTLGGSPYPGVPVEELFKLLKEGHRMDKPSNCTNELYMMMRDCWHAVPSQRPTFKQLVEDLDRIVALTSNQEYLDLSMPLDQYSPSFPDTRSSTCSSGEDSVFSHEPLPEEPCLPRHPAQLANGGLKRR

Chain of Calcium/calmodulin-dependent protein kinase type 1D (Homo sapiens) (Q8IU85 whole entry, looked up): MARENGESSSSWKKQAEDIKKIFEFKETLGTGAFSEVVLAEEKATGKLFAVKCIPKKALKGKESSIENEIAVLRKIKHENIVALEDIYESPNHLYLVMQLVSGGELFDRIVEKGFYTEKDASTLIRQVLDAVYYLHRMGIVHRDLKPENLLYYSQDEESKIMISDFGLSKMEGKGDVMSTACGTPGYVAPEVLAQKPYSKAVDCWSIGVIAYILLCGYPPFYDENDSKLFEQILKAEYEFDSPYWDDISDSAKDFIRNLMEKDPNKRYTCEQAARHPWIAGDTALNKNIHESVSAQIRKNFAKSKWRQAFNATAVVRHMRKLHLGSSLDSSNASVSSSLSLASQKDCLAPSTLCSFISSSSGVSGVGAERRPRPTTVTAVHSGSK
Chain of RAF proto-oncogene serine/threonine-protein kinase (Homo sapiens) (P04049 whole entry): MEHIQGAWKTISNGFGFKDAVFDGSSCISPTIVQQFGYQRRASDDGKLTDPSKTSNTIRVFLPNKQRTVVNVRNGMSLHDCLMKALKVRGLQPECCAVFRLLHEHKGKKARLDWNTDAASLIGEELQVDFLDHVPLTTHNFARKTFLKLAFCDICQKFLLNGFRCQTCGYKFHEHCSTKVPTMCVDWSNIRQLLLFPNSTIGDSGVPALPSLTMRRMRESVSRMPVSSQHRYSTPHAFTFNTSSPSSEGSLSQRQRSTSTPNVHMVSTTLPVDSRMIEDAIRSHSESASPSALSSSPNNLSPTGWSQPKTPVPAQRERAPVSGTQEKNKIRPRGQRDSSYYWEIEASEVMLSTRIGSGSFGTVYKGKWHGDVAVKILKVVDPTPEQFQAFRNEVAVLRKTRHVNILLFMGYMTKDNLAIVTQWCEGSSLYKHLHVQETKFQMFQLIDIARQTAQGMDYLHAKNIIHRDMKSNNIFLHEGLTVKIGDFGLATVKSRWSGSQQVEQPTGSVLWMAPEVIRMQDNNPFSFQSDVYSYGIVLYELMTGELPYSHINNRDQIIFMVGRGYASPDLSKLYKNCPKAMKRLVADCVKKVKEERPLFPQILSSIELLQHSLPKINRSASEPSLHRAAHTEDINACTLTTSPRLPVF
Chain of Homeodomain-interacting protein kinase 2 (Q9H2X6 whole entry, looked up): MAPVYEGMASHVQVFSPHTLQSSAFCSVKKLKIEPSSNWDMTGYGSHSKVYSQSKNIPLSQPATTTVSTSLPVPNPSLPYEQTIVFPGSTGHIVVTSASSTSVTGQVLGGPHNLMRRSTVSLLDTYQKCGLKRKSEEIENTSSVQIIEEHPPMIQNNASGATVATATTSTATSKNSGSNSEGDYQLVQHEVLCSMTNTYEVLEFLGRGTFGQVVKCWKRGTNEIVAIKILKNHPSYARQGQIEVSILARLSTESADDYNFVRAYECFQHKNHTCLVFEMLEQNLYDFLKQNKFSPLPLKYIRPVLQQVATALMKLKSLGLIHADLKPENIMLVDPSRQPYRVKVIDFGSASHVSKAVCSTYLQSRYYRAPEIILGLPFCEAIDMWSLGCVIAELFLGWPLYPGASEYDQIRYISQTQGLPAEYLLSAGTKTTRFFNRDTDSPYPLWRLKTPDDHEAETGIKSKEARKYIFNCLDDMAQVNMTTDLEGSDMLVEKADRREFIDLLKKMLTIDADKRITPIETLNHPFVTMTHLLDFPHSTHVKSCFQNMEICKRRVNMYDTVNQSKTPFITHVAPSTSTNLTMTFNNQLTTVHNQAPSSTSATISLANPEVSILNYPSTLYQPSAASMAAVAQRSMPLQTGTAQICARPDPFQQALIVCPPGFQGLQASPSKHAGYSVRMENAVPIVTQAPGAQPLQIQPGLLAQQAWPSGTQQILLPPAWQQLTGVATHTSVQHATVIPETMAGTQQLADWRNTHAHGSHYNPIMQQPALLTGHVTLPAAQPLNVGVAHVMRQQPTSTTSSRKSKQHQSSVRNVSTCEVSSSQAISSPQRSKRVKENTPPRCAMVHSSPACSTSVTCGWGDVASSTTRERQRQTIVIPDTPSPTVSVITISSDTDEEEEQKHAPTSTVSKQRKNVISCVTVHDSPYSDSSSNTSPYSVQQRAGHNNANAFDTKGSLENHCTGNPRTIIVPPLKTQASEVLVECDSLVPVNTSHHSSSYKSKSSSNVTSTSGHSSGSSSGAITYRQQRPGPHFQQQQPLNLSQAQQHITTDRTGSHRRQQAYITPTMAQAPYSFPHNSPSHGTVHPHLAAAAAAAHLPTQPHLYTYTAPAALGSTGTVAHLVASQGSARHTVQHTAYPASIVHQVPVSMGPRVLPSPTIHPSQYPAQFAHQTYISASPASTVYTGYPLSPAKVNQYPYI
Chain of Vascular endothelial growth factor receptor 2 (P35968 whole entry): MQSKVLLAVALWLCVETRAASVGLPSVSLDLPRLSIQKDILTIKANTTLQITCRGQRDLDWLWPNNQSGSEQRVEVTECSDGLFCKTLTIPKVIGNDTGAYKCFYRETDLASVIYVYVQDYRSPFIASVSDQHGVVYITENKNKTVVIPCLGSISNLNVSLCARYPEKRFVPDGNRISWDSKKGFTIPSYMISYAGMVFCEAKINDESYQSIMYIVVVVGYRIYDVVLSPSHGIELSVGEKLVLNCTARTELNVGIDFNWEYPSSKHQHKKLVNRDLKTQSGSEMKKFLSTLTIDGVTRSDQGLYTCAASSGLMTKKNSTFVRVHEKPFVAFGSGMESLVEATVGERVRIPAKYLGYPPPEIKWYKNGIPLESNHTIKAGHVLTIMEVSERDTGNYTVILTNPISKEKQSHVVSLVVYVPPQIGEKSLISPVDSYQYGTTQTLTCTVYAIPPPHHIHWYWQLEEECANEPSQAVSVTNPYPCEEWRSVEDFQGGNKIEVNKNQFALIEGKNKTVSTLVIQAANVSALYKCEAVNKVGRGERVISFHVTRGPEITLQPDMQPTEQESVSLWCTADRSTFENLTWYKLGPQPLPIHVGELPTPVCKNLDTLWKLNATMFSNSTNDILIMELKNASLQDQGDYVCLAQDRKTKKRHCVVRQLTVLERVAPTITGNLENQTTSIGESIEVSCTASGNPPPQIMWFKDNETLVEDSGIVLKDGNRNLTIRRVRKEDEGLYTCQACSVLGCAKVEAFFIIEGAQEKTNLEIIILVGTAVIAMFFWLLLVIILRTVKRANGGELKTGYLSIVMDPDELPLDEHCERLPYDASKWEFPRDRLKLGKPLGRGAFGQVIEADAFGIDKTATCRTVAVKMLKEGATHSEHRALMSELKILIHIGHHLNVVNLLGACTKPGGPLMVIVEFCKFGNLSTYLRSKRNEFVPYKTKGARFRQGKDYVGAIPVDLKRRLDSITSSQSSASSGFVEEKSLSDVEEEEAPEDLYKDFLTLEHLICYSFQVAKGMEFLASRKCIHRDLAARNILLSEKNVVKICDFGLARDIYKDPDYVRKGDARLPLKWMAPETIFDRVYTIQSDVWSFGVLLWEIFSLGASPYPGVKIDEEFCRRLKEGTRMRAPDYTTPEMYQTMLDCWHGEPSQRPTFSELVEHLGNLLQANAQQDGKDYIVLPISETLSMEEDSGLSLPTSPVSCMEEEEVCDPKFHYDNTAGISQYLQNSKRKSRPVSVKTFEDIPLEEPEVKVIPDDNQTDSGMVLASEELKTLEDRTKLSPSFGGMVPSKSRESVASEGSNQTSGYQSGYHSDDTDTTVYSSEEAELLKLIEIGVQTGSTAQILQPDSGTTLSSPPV
Chain of Serine/threonine-protein kinase pim-1 (P11309 whole entry, looked up): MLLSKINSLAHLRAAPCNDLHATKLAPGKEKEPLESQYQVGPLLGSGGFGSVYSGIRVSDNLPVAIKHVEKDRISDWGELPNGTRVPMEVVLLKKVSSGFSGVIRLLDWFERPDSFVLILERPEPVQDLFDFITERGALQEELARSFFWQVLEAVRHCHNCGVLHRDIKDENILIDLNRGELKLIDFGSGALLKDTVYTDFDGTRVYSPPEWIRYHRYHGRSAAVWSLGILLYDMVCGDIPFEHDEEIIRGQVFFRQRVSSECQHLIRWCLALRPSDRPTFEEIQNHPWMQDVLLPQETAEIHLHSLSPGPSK

`C=CC(=O)Nc1ccc(C(=O)Nc2[nH]nc3c2CN(C(=O)N[C@H](CN(C)C)c2ccccc2)C3(C)C)cc1` came in with a % of engagement in test [1] of 32.4%.

Regarding `CNC(=O)Nc1ccc(-c2nc(N3CC4CCC(C3)O4)c3cnn(C4CCC5(CC4)OCCO5)c3n2)cc1`, the % of control in test [2] was 95%. Take `Cc1cc([C@@H](C)Nc2ccccc2C(=O)O)c2nc(N3CCOCC3)cc(=O)n2c1` [AZD-6482]: in test [3], the % of control was determined as 79%. As for `O=C(NOC[C@H](O)CO)c1ccc(F)c(F)c1Nc1ccc(I)cc1F`, the % of control turned out to be 97% in test [4] and 94% in test [5].

The compound `Nc1cnc(N2CCc3cc(S(=O)(=O)Nc4c(F)cc(Cl)cc4F)cc(N4CCCC4=O)c32)nc1` [TP-020n] yielded a % of control in test [6] of 100%.

`CC[C@@H](Nc1c(C#N)c(-c2ccc(-c3cccc(C)c3F)cc2)nc2cnccc12)C(=O)O` [BAY-091]: the % of inhibition in [7] turned out to be 50.1%.

Usually IC50 stands for the concentration that inhibits the measured activity by half. As for `CCC(=O)N1CC[C@H](Nc2ncnc3c2CN(c2cnc(OC)c(C(F)(F)F)c2)CC3)C1` [LENIOLISIB], the IC50 in test [8] is more than 30 µM. On to `COc1cc(Nc2nc(C)cc(-c3cnn4nc(OC)ccc34)n2)cc(C(F)(F)F)c1`, for which, in [9], the % of control came to 100%.

As to `Cc1cc(F)c(C(=O)Nc2cccc(-c3nncn3C(C)C)n2)cc1-n1cnc(C2CC2)c1`, in test [10], the % of control is 79%.

`CCC(=O)N1CCN(c2ccc(-n3c(=O)ccc4cnc5ccc(-c6cnc7ccccc7c6)cc5c43)cc2C(F)(F)F)CC1` gave a % of control in test [11] of 97%. As for `C=CC(=O)Nc1cc(-n2c(=O)ccc3cnc4ccc(-c5ccc(NS(C)(=O)=O)cc5)cc4c32)ccc1C`, the % of control was determined as 92% in test [12] (at 1 µM) and 98% in test [12] (at 10 µM).
